Earlier results as cited in patent US20170172144A1, “ECTOPARASITE FORMULATION” (priority 2014, published 2017).
Counter-ions that a name gives are not always drawn.

details: qualitative statement

Row | Compound | aqueous solubility
1 | Abamectin | relatively low solubility
2 | COC(=O)Nc1nc2ccc([S+]([O-])c3ccccc3)cc2[nH]1 (stereo not drawn) [oxfendazole, Oxfendazole] | relatively low solubility
3 | c1ccc([C@H]2CN3CCSC3=N2)cc1 [levamisole hydrochloride, Levamisole hydrochloride] | soluble
